# Measured values: BindingDB's records for patent WO2022104348 (Janssen Pharmaceutica, 2022)
# Molecular target: Mitogen-activated protein kinase kinase kinase 14 (Homo sapiens, UniProt Q99558)
# Test: Inhibition of auto-phosphorylation of recombinant human NF-kappaB-inducing kinase (NIK/MAP3K14) activity
# Description: NIK/MAP3K14 auto-phosphorylation activity was measured using the AlphaScreen (ascreen) format (Perkin Elmer). All compound6 tested were dissolved in dimethyl sulfoxide (DMSO) and further dilutions were made in assay buffer. The final DMSO concentration was 0.7% (v/v) in assays. The assay buffer was 50 mM Tris pH 7.5 containing 1 mM EGTA (ethylene glycol tetraacetic acid), 1 mM DTT (dithiothreitol), 0.1 mM NasVCO4, 5 mM MgCE, and 0.01 % Tween 20. The assays were carried out in 384 well Proxiplates (Perkin Elmer). The incubations consisted of the compound, […] Adenosine-5'-triphosphate (ATP), and 1 nM NIK/MAP3K14. Incubations were initiated by the addition of GST-tagged NIK/MAP3K14 enzyme, carried out for 2 h at 25 °C and terminated by addition of stop buffer containing anti-phospho-IKK Ser176/180 antibody. Protein A Acceptor and Glutathione-Donor bead6 were added before reading using an EnVision Multilabel Plate Reader (Perkin Elmer). The signal obtained in the wells was normalized using high (full enzyme activity, 0.7% DMSO) and low controls (no enzyme activity, 0.7% DMSO, no ATP). IC50 s were determined by fitting a sigmoidal curve to % inhibition of control versus Log compound concentration.
# Sequence of Mitogen-activated protein kinase kinase kinase 14 (Q99558 whole entry): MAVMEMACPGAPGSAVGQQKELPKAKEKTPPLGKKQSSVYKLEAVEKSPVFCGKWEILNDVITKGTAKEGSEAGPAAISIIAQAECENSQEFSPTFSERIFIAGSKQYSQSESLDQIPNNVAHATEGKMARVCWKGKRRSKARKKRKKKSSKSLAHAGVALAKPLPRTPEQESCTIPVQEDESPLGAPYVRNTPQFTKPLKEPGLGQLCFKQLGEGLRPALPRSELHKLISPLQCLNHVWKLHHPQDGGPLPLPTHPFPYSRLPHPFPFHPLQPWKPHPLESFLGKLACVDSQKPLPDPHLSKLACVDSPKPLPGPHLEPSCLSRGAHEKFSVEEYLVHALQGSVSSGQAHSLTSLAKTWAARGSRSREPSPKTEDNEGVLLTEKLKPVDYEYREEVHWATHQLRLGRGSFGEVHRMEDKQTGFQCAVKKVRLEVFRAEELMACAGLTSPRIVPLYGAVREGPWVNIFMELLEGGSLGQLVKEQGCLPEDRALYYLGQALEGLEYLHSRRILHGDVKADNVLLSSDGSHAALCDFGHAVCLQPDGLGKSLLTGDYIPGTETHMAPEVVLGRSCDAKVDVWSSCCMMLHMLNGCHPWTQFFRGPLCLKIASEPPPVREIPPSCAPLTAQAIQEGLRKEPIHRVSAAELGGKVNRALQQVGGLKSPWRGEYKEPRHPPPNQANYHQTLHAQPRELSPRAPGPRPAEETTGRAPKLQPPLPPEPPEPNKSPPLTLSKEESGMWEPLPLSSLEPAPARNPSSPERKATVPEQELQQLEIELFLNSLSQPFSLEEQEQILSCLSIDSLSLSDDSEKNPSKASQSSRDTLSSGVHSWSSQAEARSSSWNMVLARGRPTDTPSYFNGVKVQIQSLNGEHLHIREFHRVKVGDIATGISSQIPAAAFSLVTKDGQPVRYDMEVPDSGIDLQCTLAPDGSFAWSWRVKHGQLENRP
row,Structure (SMILES),IC50 [µM]
1,"Cn1ccnc1[C@@](C)(O)c1cccc(-c2csc(-c3c[nH]c4ncccc34)n2)c1 [WO2022104348, Example 79]",> 0.5
2,"Cc1cnc2[nH]cc(-c3nc(-c4cccc([C@]5(O)CCN(C)C5=O)c4)cs3)c2c1 [WO2022104348, Example 7]",< 0.1
3,"CN1CC[C@@](O)(c2cccc(-c3nc(-c4cc(N)nc5[nH]ccc45)cs3)c2)C1=O [WO2022104348, Example 129]",> 0.5
4,"CN1C(=O)[C@](O)(c2cccc(-c3csc(-c4c[nH]c5ncccc45)n3)c2)c2ncccc21 [WO2022104348, Example 92]",< 0.1
5,"CN1C[C@](O)(c2cccc(-c3csc(-c4c[nH]c5nccnc45)n3)c2)C1=O [WO2022104348, Example 46]",> 0.5
6,"C[C@](O)(c1cccc(-c2csc(-c3c[nH]c4nccnc34)n2)c1)c1ncc[nH]1 [WO2022104348, Example 78]",> 0.5
7,"Cc1sc(-c2c[nH]c3nccnc23)nc1-c1cccc([C@]2(O)CCN(C)C2=O)c1 [WO2022104348, Example 66]",< 0.1
8,"CN1CC[C@@](O)(c2cccc(-c3cc(-c4c[nH]c5ncccc45)co3)c2)C1=O [WO2022104348, Example 115]",> 0.5
9,"O[C@@]1(c2cccc(-c3csc(-c4c[nH]c5ncccc45)n3)c2)C=Cc2cccnc21 [WO2022104348, Example 33]",< 0.1
10,"Cc1cc(-c2csc(-c3c[nH]c4nccnc34)n2)cc([C@]2(O)CCN(C)C2=O)c1 [WO2022104348, Example 68]",< 0.1
11,"O[C@@]1(c2cccc(-c3csc(-c4c[nH]c5nccnc45)n3)c2)CCn2ccnc21 [WO2022104348, Example 41]",< 0.1
12,"O[C@@]1(c2cccc(-c3csc(-c4c[nH]c5ncc(F)c(F)c45)n3)c2)CCn2ccnc21 [WO2022104348, Example 96]",< 0.1
13,"CN1CC[C@@](O)(c2cccc(-c3csc(-c4n[nH]c5ncccc45)n3)c2)C1=O [WO2022104348, Example 100]",> 0.5
14,"CN1CC[C@@](O)(c2cccc(-c3csc(-c4c[nH]c5ncc(F)c(F)c45)n3)c2)C1=O [WO2022104348, Example 94]",< 0.1
15,"C[C@]1(O)C[C@](O)(c2cccc(-c3csc(-c4c[nH]c5ncccc45)n3)c2)c2ncccc21 [WO2022104348, Example 105]",> 0.5
16,"CN1CC[C@@](O)(c2cccc(-c3nc(-c4c[nH]c5ncccc45)sc3CO)c2)C1=O [WO2022104348, Example 50]",< 0.1

row,Structure (SMILES),IC50 [µM]
1,"O[C@@]1(c2cccc(-c3csc(-c4c[nH]c5nccnc45)n3)c2)COc2cccnc21 [WO2022104348, Example 86]",> 0.5
2,"C[C@@]1(O)C[C@@](O)(c2cccc(-c3csc(-c4c[nH]c5ncccc45)n3)c2)c2ncccc21 [WO2022104348, Example 106]",> 0.5
3,"O[C@@]1(c2cccc(-c3csc(-c4c[nH]c5ncc(Cl)cc45)n3)c2)Cc2nccn2C1 [WO2022104348, Example 27]",< 0.1
4,"CN1CC[C@@](O)(c2cccc(-n3cc(-c4c[nH]c5ncccc45)nn3)c2)C1=O [WO2022104348, Example 123]",> 0.5
5,"C[C@@](O)(c1cccc(-c2csc(-c3c[nH]c4nccnc34)n2)c1)c1ncc[nH]1 [WO2022104348, Example 77]",> 0.5
6,"Cc1ccc(-c2csc(-c3c[nH]c4nccnc34)n2)cc1[C@@]1(O)CCN(C)C1=O [WO2022104348, Example 70]",> 0.5
7,"Cc1cnc2c(-c3nc(-c4cccc([C@]5(O)CCn6ccnc65)c4)cs3)c[nH]c2n1 [WO2022104348, Example 83]",< 0.1
8,"O[C@@]1(c2cccc(-c3csc(-c4c[nH]c5ncc(Cl)c(F)c45)n3)c2)CCn2ccnc21 [WO2022104348, Example 97]",< 0.1
9,"O=C1Nc2cccnc2[C@@]1(O)c1cccc(-c2csc(-c3c[nH]c4ncccc34)n2)c1 [WO2022104348, Example 90]",> 0.5
10,"CN1CC[C@@](O)(c2cccc(-n3ncc(-c4c[nH]c5ncccc45)n3)c2)C1=O [WO2022104348, Example 109]",< 0.1
11,"CN1CC[C@@](O)(c2cccc(-c3nc(-c4c(Cl)cnc5[nH]ccc45)cs3)c2)C1=O [WO2022104348, Example 130]",> 0.5
12,"CN1CCC[C@](O)(c2cccc(-c3csc(-c4c[nH]c5nccnc45)n3)c2)C1=O [WO2022104348, Example 55]",> 0.5
13,"O[C@]1(c2cccc(-c3csc(-c4c[nH]c5ncccc45)n3)c2)C=Cc2cccnc21 [WO2022104348, Example 34]",> 0.5
14,"CN1CC[C@@](O)(c2cccc(-c3csc(-c4c[nH]c5ncccc45)n3)c2)C1=O [WO2022104348, Example 40]",< 0.1
15,"COc1cnc2[nH]cc(-c3nc(-c4cccc([C@]5(O)CCN(C)C5=O)c4)cs3)c2c1 [WO2022104348, Example 49]",< 0.1
